Ten molecules from patent US20030143645A1, “Quinone reductase 2 and aldehyde dehydrogenase as therapeutic targets” (priority 2001, published 2003) can be followed below.

Like-named read-outs stand apart in the source and are kept apart here.

In data set [1] the test system is Plasmodium falciparum strain 3D7. The experiment in a line: P. falciparum growth by (3H)hypoxanthine uptake. The data set is classed as cell-based. Conditions: in vitro. As for the experimental part:
Plasmodium cultures. Plasmodium falciparum strain 3D7 was obtained from the MR4/ATCC and grown according to the included specifications. Parasites were harvested by saponin lysis as previously described (Schlichtherle et al (eds) Methods in Malaria Research 77(MR4/ATCC, Manasas, Va. 2000). P. falciparum growth was measured by (^3H)hypoxanthine uptake as previously described (Schlichtherle et al (eds) Methods in Malaria Research 77(MR4/ATCC, Manasas, Va. 2000).
To determine the contribution of QR2 or ALDH1 inhibition to the antimalarial properties of the quinolines, known inhibitors of QR2 or ALDH1 were added to P. falciparum and its growth was measured. Known inhibitors of P. falciparum growth all had IC50 values in agreement with the literature (FIG. 12A). […] The explanation for this finding is likely to be related to the abilities of the drugs to penetrate the plasma membrane or their ability to become concentrated within P. falciparum infected RBCs.

Data set [2] relates to purine binding proteome (hALDH1 and hQR2). Description: ATP affinity array / ATP-Sepharose displacement elution of RBC purine binding proteome. Set-up: species or system human. Conditions: for proteins eluted from ATP-Sepharose (ALDH1 55 kDa, QR2 26 kDa): RBC extract, 5 mM drug (Example 2); for proteins eluted from ATP affinity array (hALDH1 and hQR2): non-infected red cells, drug at [mM]. As for the experimental part:
ATP-affinity array chromatography. In whole mouse experiments, the animal (except for its tail, feet, skin and intestines) was frozen in liquid N2 and blended in buffer A containing 50 mM Hepes, pH 7.5, 50 mM NaCl, 10 mM MgCl2, 0.1% NONIDET- P40, 1 mM dithiothreitol, 1 μg/ml leupeptin, 100 μg/ml pefabloc and 10 μg/ml aprotinin. Mouse lysate was clarified by centrifugation for 1 hr at 100,000×g. For infected and non-infected RBC's˜1.5×10^9 cells were mixed with an equal volume of 2×buffer A, rocked for 30 min at 4° C., and clarified by centrifugation for 1 hr at 100,000×g. Supernatants were dialyzed overnight against 50 mM Hepes, pH 7.5, 50 mM NaCl, 10 mM MgCl2 and 1 mM dithiothreitol. […] Proteins were resolved by 12% SDS-PAGE and visualized by staining either with Coomassie brilliant Blue R-250 or silver nitrate. Alternatively, proteins were transferred to membrane GeneMate (Kaysville, Utah) in transfer buffer (25 mM Tris, 200 mM glycine, 20% methanol, and 0.01% SDS) for mixed peptide sequencing (Damer et al, J. Biol. Chem. 273:24396 (1998)). hALDH 1 and hQR2 purification and activity assays. Fresh human red blood cells (RBC) were obtained from Valley Biomedical, washed twice with PBS, and lysed in buffer B (0.1% Triton X, 50 mM Tris pH 7.5, 125 mM NaCl, 1 μg/mL aprotonin, 1 μg/mL pepstatin and 10 μg/mL PEFABLOC). Lysates were centrifuged twice at 125,000×g for 1 hr at 4° C. Cleared supernatant was filtered through a […] filter and loaded onto PQ-Sepharose. Pure hALDH was eluted with 5 mM NADH and pure hQR2 with 5 mM NMeN. The eluants were dialyzed overnight at 4° C. against 25 mM Tris pH 8.0 and 1 mM DTT. hALDHl was assayed as described in Table 2. Purified hQR2 was assayed at 22° C. in 100 μM N-methyldihydronicotinamide, 30 μM menadione, 0.1% Triton X-100, 50 mM Tris pH 8.5, 100 μM dicoumarol (unless stated otherwise). N-methyldihydronicotinamide was synthesized (Ortiz-Maldonado et al, Biochemistry 38(50):16636-16647 (1999)) and stored in 100 mM Tris-sulfate pH 8.0.
An ATP affinity array was charged with RBC and P. falciparum (blood stage) infected RBC extract.
chromatography. P. falciparum-infected or non-infected RBCs were lysed by mixing with an equal volume of 2×buffer A and rocking for 30 min at 4° C. 1×buffer A: 50 mM Hepes, pH 7.5, 50 mM NaCl, 10 mM MgCl2, 0.1% NONIDET-P40, 1 mM dithiothreitol, 1 μg/ml leupeptin, 100 μg/ml pefabloc and 1 μg/ml aprotinin. […] Proteins were resolved by 12% SDS-PAGE and visualized by staining with Coomassie brilliant blue R-250 or silver nitrate. Alternatively, proteins were transferred to PVM membrane (Kaysville, Utah) for mixed peptide sequencing (Damer et al, J. Biol. Chem. 273(38):24396-24405 (1998)).
To better understand the mechanism of the quinolines, an attempt was made to identify all quinoline interacting proteins in a cell or animal lysate. To achieve this, a functional proteomics approach was used as outlined in FIG. 7. In this strategy, three different, yet complementary approaches were conducted to identify and validate targets of the quinolines. In step one, termed displacement affinity chromatography, a specific sub-proteome from a cell is captured on an affinity matrix by virtue of its interaction with an immobilized ligand (FIG. 7, Step 1). The sup-proteome is captured after application of saturating amounts of cell lysate and extensive washing of the resin. The compounds of interest (in this case, the quinolines) are then applied to the matrix in parallel and allowed to interact with the bound proteome. […] In the second step, affinity matrices were created by directly linking the quinoline drugs to Sepharose, and after application of cell lysates, all proteins that specifically eluted from these matrices in the presence of drug were identified (FIG. 7 Step 2).

Data set [3] concerns the target T1, QR2 (Homo sapiens, UniProt P16083).
T1 sequence (P16083 1-231): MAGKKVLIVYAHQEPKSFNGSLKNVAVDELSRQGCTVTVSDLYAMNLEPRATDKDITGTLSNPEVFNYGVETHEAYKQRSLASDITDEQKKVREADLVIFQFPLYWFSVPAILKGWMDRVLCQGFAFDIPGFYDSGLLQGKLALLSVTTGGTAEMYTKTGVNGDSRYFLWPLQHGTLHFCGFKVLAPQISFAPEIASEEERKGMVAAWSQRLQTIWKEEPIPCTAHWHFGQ
The experiment in a line: QR2 activity assay with recombinant QR2 (Example 2). The data set is classed as biochemical. Set-up: GST (N, cleaved yes); made in house; E. coli only by inference. As for the experimental part: Cloning of human QR2. Human QR2 was PCR amplified from human liver cDNA (Clontech) with the following primers: 5′[…]-3′ and 5′-[…]-3′ and cloned into the pGEX-4T-2 GST expression vector (Pharmacia). GST-tagged QR2 was purified and the GST tag removed according to the manufacturers instructions.
(§1) ALDH1, QR2 and QR1 activity assays. […] Reaction products were separated with a gradient of acetonitrile in 10 mM triethylamine acetic acid. […] QR1 IC50 values were calculated using GraphPad Prism.

The target of data set [4] is QR1 (Oryctolagus cuniculus, UniProt U3KNP2). The experiment in a line: QR1 activity assay (Example 2). Type of data set: biochemical, rabbit. Set-up: QR1 was purified from rabbit liver as previously described; from tissue; host or cells: rabbit liver. As for the experimental part:
Purification of native ALDH1, QR2 and QR1. RBC extract was prepared as described above and applied to PQ-Sepharose equilibrated in buffer A. ALDH1 and QR2 were obtained by eluting the column with 5 mM b-NAD^+ and NMeH respectively.
as §1

Data set [5] concerns the target T1, QR2. The experiment in a line: hQR2 activity assay, enzyme purified from human RBC (Example 1). Type of data set: biochemical. Set-up: Pure hALDH was eluted with 5 mM NADH and pure hQR2 with 5 mM NMeN; tissue Valley Biomedical (blood); host or cells: human red blood cells. The protocol: ATP-affinity array chromatography. In whole mouse experiments, the animal (except for its tail, feet, skin and intestines) was frozen in liquid N2 and blended in buffer A containing 50 mM Hepes, pH 7.5, 50 mM NaCl, 10 mM MgCl2, 0.1% NONIDET- P40, 1 mM dithiothreitol, 1 μg/ml leupeptin, 100 μg/ml pefabloc and 10 μg/ml aprotinin. Mouse lysate was clarified by centrifugation for 1 hr at 100,000×g. For infected and non-infected RBC's˜1.5×10^9 cells were mixed with an equal volume of 2×buffer A, rocked for 30 min at 4° C., and clarified by centrifugation for 1 hr at 100,000×g. Supernatants were dialyzed overnight against 50 mM Hepes, pH 7.5, 50 mM NaCl, 10 mM MgCl2 and 1 mM dithiothreitol. […] Lysates were centrifuged twice at 125,000×g for 1 hr at 4° C. […] Pure hALDH was eluted with 5 mM NADH and pure hQR2 with 5 mM NMeN. The eluants were dialyzed overnight at 4° C. against 25 mM Tris pH 8.0 and 1 mM DTT. hALDHl was assayed as described in Table 2. Purified hQR2 was assayed at 22° C. in 100 μM N-methyldihydronicotinamide, 30 μM menadione, 0.1% Triton X-100, 50 mM Tris pH 8.5, 100 μM dicoumarol (unless stated otherwise).
For QR2 Kd apparent values determined using the expression [formula]
The Kd was determined as [formula]
Where Ao=rate in the absence of drug; Aapp=rate+drug; [M]=concentration of menadione.

Data set [6] deals with malaria infection. Description: cell-based assays of infection.
Substrate in data set [7]: CC1=CC(=O)c2ccccc2C1=O
Description: hQR2 activity assay, enzyme purified from human RBC (Example 1). Conditions: 22.0 °C. Type of data set: biochemical.

[8] abbreviates: recombinant QR2, 50 μM NMeH, 5-30 μM menadione, read-out: QR2 K1 (μM) ± SEM.
[9] abbreviates: QR1 purified from rabbit liver, read-out: QR1 IC50 (μM) ± SEM.

QR1, sequence (U3KNP2 1-274): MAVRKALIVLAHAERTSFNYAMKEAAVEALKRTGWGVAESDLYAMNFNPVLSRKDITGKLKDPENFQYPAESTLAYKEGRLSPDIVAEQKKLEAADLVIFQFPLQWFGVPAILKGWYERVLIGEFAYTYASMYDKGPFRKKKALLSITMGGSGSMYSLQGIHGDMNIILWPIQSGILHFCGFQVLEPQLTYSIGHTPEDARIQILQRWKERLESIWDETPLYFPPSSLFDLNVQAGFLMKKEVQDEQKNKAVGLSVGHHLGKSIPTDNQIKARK

By IC50 is commonly meant the concentration needed to halve the response being measured. Turning to `O=c1cc(-c2ccccc2)oc2cc(O)cc(O)c12` [chrysin], the IC50 in data set [1] (Plasmodium falciparum) is 53.8 µM.

As to `O=c1c(O)c(-c2ccc(O)c(O)c2)oc2cc(O)cc(O)c12` [quercetin], the IC50 in data set [1] (Plasmodium falciparum) amounted to 81.8 µM.

In the case of `Nc1ccc(S(=O)(=O)c2ccc(N)cc2)cc1` [dapsone], the “elution of hQR2, hALDH1 or any other protein from ATP affinity array” value in data set [2] (infected or non infected red cell extract) is recorded as “did not elute”.

For the molecule `OC(c1cc(C(F)(F)F)nc2c(C(F)(F)F)cccc12)C1CCCCN1` (stereo not shown) [MQ, mefloquine], in data set [2], the “proteins eluted from ATP-Sepharose (ALDH1 55 kDa, QR2 26 kDa)” value is “selectively eluted proteins of 55 and 26 kDa”; the “proteins eluted from ATP affinity array (hALDH1 and hQR2)” value (shortened to “proteins eluted from ATP affinity array”) is on record as “selectively eluted two proteins”. For the same molecule, the “inhibition of QR2 activity” value in data set [3] is reported as “less potent inhibitors”. In addition, the Ki in data set [3] (setting [8]) came out at 17 ± 4 µM. Also, the “effect on QR1 activity” value in data set [4] is “weakly inhibited”. Besides, in data set [4] (setting [9]), the concentration for half-maximal inhibition (IC50) was 616 ± 60 µM.

For the molecule `COc1cc(NC(C)CCCN)c2ncccc2c1` (stereo not shown) [PQ, primaquine], in data set [2], the “proteins eluted from ATP-Sepharose (ALDH1 55 kDa, QR2 26 kDa)” value was “selectively eluted proteins of 55 and 26 kDa”; the “proteins eluted from ATP affinity array” value is “selectively eluted two proteins”. In data set [3], the Ki worked out at 1.04 ± 0.38 µM and the “inhibition of QR2 activity” value is “potent inhibitors”. Further, in data set [4], the IC50 worked out at 124 ± 10 µM and the “effect on QR1 activity” value is on record as “weakly inhibited”. The molecule also registered a Kd in data set [5] of 9.3 µM.

Consider `CCN(CC)c1ccc(C=O)cc1` [DEAB, diethylaminobenzaldehyde], for which, in data set [1], the IC50 turned out to be 277 µM. Also, in data set [6], the “antimalarial activity” value is “have antimalarial activity”.

As for `CCN(CC)CCCC(C)Nc1c2ccc(Cl)cc2nc2ccc(OC)cc12` (stereo not shown) [QC, Quinacrine], in data set [3], the Ki is 0.51 ± 0.11 µM and the “inhibition of QR2 activity” value is recorded as “potent inhibitors”. Further, the “effect on QR1 activity” value in data set [4] is given as “not affected”. Further, the IC50 in data set [4] (setting [9]) was more than 1000 µM.

With `C=C[C@H]1C[N@@]2CC[C@H]1C[C@H]2[C@H](O)c1ccnc2ccc(OC)cc12` [Q, quinine], in data set [3], the “inhibition of QR2 activity” value is listed as “less potent inhibitors”. Also, the Ki in data set [3] (setting [8]) amounted to 252 ± 50 µM. Besides, the IC50 in data set [4] (setting [9]) came to 9.6 ± 0.8 µM.

Take `Cc1cc(N)c2ccccc2n1` [4AQ, 4 amino quinaldine]: the “proteins eluted from ATP affinity array” value in data set [2] is “selectively eluted two proteins”. In addition, in data set [5] (purified hQR2 from human RBC, menadione substrate, read-out: Kd(app)), the Kd came to 0.81 µM.

B1: hQR2 (Homo sapiens) (protein)
chain: T1 sequence (P16083 1-231)
notes: Pure hALDH was eluted with 5 mM NADH and pure hQR2 with 5 mM NMeN; tissue Valley Biomedical (blood); host or cells: human red blood cells
Broadly, the Km is the concentration of substrate that gives half-maximal velocity. Regarding B1, the Km in data set [7] stood at 14 µM.
